Laboratory results from a melting point compilation (Tetko et al.; mined from patent text by program, amines drawn as free bases though some values may be those of a salt).

Compound	melting point [°C]
CC(C)c1cccc(NC(=N)Nc2cccc(C(C)C)c2)c1	118 to 119
CSc1nn2c(N(C)C)cc(C)nc2c1S(=O)(=O)c1ccc(C(C)C)cc1	222 to 224
Cc1nc(Cl)c2n1-c1ccccc1C(c1ccccc1F)N(C)C2 (stereo unspecified)	156 to 158
Cn1cc2c(O)cc(-c3ccc(Cl)cc3)nc2n1	302 to 305
Cn1ccc2cc(NC(=O)Oc3ccccc3)ccc21	103 to 107
C=CC(C)(CCC=C(C)C)OCC(=O)c1cc(C(C)C)c(O)c(C(C)C)c1 (stereo unspecified)	71 to 72
NC(=O)C1CNCCN1CCCC(c1ccc(F)cc1)c1ccc(F)cc1 (stereo unspecified)	114
CNC(=S)NCCN1CCCCC1	166
Nc1nc(=O)n(CCCCI)cc1F	181 to 184
CCc1nc2c(N)nc3ccccc3c2n1CCCCSC	183 to 186
O=C(N[C@@H](CO)c1ccccc1)c1ccco1	130 to 131
Cc1nc(-c2ccc(C#N)cc2)oc1C(=O)NCCCCN1CCC(c2ccc3c(c2OCCO)CCCC3)CC1	109 to 111
O=c1[nH]c2nc(SCc3ccccc3)ncc2cc1Oc1ccc(F)cc1F	240 to 244
C[C@H]1[C@H](OS(C)(=O)=O)CN1C(c1ccccc1)c1ccccc1 (relative stereo)	68 to 71
CN(C)C=Nc1nc(=O)n(-c2ccsc2)cc1F	211 to 213
CN1CC=C(c2cccc3ccc(O)cc23)CC1	182 to 184
CCOC(=O)c1nsc(-c2ccccc2)n1	32 to 35
CC1(C)CC(=O)c2c(SC(C)(C)C)sc(-c3cc[nH]n3)c2C1	220 to 222
O=C(OCC1CCCCO1)c1ccccc1Nc1ccnc2cc(Cl)ccc12 (stereo unspecified)	93 to 94
Cc1ccccc1C(=O)C=CC(=O)O	82 to 83
CCCC1CCC2C3CCc4cc(O)ccc4C3CCC12C (stereo unspecified)	130 to 131
COc1ccc2c(c1)[C@@H](O)[C@H](CN1CCC3(CC1)C(=O)NCN3c1ccccc1)CC2 (relative stereo)	216 to 218
COc1cc(OC)c2c(=O)[nH]c(-c3ccc(OCCN4CCCC4)cc3)nc2c1	226 to 227
CCCCC(NS(=O)(=O)c1ccc(Cl)cc1)C(=S)Nc1ccc(CC(=O)OCC)cc1 (racemic)	70 to 73
Cc1c(Cc2ccccc2)c(=O)oc2cc(OCC#N)cc(OCC#N)c12	147 to 154
O=C(CCCCl)c1ccc2oc3ccc(C(=O)CCCCl)cc3c2c1	102 to 104

Compound	melting point [°C]
COc1cc2c(cc1OC)C(C(C#N)SCCOC(C)=O)=NCC2 (stereo unspecified)	157
O=C(NO)C(CCN1C(=O)c2ccccc2C1=O)NS(=O)(=O)c1ccc(-c2ccc(Cl)cc2)cc1 (stereo unspecified)	184 to 186
ClCCCOc1ccc(-c2ccccc2)cc1	65 to 66
Cc1ccc(S(N)(=O)=O)cc1C(O)CN=[N+]=[N-] (stereo unspecified)	98
Cc1c(NC(=O)c2cc3c(s2)CCCC3)cccc1-c1cn(C)c(=O)c(Nc2ccc(C3C(=O)N(C)CCN3C)cc2)n1 (stereo unspecified)	155 to 156
COc1cc(N)c(Cl)cc1C(=O)NCCNCc1ccc(CN(C)C)o1	91 to 93
Cc1c(-c2ccccc2)oc2c(C(=O)NCC(C)N3CCCCC3)cccc2c1=O (stereo unspecified)	106 to 108
CCN(CC)C(=O)c1c(CO)ccc(F)c1[Si](C)(C)C	107 to 108
COc1cc(C=C2NC(=O)N(C)C2=O)ccc1O	227 to 228
COC(=O)c1ccc(Cn2nnc3ccc(NC(=O)OC4CCCC4)cc32)c(OC)c1	142 to 143
COc1cc2c(cc1OC)C1=C(CC2)NC(=O)CC1	270 to 271
CCCS(=O)(=O)N1C[C@@H](C)C[C@H](Nc2ncccc2-c2cnc3[nH]ccc3n2)C1	178 to 180
COC(=C1NC(=O)C(=NO)C1=O)c1ccccc1	174
COC(=O)CCCCCCCC(=O)CCC(=O)COC(C)=O	64 to 65
C=C1C2CCCCC2CC2C(OC)OCC12 (stereo unspecified)	53 to 55
CCC1Cc2cc(OC)c(Cl)c(Cl)c2C1=O (stereo unspecified)	146 to 147
CC(=NNc1ccc(C2=NNC(=O)CC2C)cc1)c1cnsn1 (stereo unspecified)	241 to 245
CCOCn1c(Br)c(Br)c(S(=O)(=O)C(F)(F)F)c1-c1ccc(Cl)cc1	133 to 135
CSc1nnc(-c2ccc3occ(-c4cccc(OC(F)(F)F)c4)c3c2)o1	113 to 114
CCCCOc1ccc(/C=C/c2nc3c(c(=O)n(CC)c(=O)n3CC)n2C)cc1	123 to 124
CC[Si](CC)(CC)Oc1cccc2ncc3c(c12)CCCC3	110 to 111
Cc1cccc(N2CCN(c3ccc(=O)[nH]n3)CC2)c1	210
COc1cc(OC)nc(C2(O)OC(=O)c3c(-c4ccc(Cl)cc4)ccnc32)n1 (stereo unspecified)	228 to 231
CC(C)Cc1nc2c(N)nc3ccccc3c2n1CCOc1ccccc1	177 to 178
CC(C)NC(=O)N1N=C(c2ccc(N)cc2)c2cc(Cl)ccc2CC1C (stereo unspecified)	100 to 102
CCc1cc(OCc2ccccc2)cc(=O)o1	62 to 63

Compound	melting point [°C]
COc1ccc(C(=O)Nc2ccccc2)cc1NC(=S)Nc1cccnc1	178 to 179
CCOC(=O)C1CCc2cc(C(=O)c3ccccc3)c(O)cc21 (stereo unspecified)	83 to 84
Nc1ccc(NCCCNc2cccc3c2C(=O)c2ccccc2C3=O)cc1	183 to 185
CC(C)(C#N)c1cc(-n2cncc2C#N)cc(C(C)(C)C#N)c1	88 to 90
Cc1cc(C)cc(Sc2c(C(C)C)nc(C=NO)n2C)c1	240 to 241
COc1cc(OCc2ccccn2)ccc1/C=C/c1cc(/C=C/c2cccc3cc[nH]c23)n[nH]1	99 to 110
CC(C)OP(=O)(CC1(C(=O)O)CCCC1)OC(C)C	53 to 57
CCc1nc(/C=C/c2cn(-c3ccccc3)nc2OCc2ccc(OCc3nc(-c4cccc(CO)c4)oc3C)c(OC)c2)cs1	130 to 132
CC(CO)NC(=O)C(F)(F)F (stereo unspecified)	80 to 81
CCOC(=O)c1c2n(c3c(F)c(Cl)ccc3c1=O)CCS2	216
Cc1nnc2n1-c1ccc(C#CCn3ccc4ccccc43)cc1C(c1ccccc1F)=NC2	167 to 169
C=CC1=CC=C(OC)C(OC)([N+](=O)[O-])C1 (stereo unspecified)	140 to 141
O=c1[nH]c2cc(Cl)ccc2n1-c1cc(Cl)ccc1O	256 to 257
C[C@]1(COc2ccc(N3CCS(=O)CC3)cc2)Cn2cc([N+](=O)[O-])nc2O1	198 to 200
Cc1ccc(O)c(C)c1O	102 to 104
CCCN(CCCC(=O)Nc1c(C(C)C)nc(C)nc1N(CC)CC)c1ccccc1	129 to 131
CCNc1nc2cccc(C(=O)OC)c2n1Cc1ccc(-c2ccccc2-c2nnn[nH]2)cc1	256 to 258
NCC1CCc2[nH]c3ccc(OC(F)(F)F)cc3c2C1 (stereo unspecified)	148 to 150
COc1cccc(OC(=O)NC2C(=O)N(CCC(C)C)c3cc(Cl)c(Cl)cc3N(c3ccccc3)C2=O)c1 (stereo unspecified)	139 to 140
CCN(CC#N)S(=O)(=O)Cc1cccc(C(F)(F)F)c1	67 to 68.5
N#Cc1ccc(C(O)Cc2ccc(C#N)cc2[N+](=O)[O-])cc1 (stereo unspecified)	147 to 153
O=c1[nH]c(-c2cc(C(F)(F)F)cc(C(F)(F)F)c2)nn1-c1cc(Cl)ccc1O	235 to 236
COc1ccc(-c2nc(-c3ccccc3)c(N(c3ccccc3)c3ccccc3)s2)cc1	152 to 155
CCO[C@H]1CCN(C(=O)c2cc(-c3ccccc3)c(=O)n3c2-c2cc(Cl)ccc2CC3)C1	134 to 136
O=c1c2ccc(Cl)cc2[nH]c2c(O)nn(CC#Cc3ccccc3Cl)c(=O)c12	255 to 257
COC(=O)C=C(C)C=CC1(O)C(C)=CC(=O)c2ccccc21 (stereo unspecified)	147 to 148

Compound	melting point [°C]
O=C(Nc1cccc(S(=O)(=O)NC2(CO)CCCC2)c1)c1cnn2c(C3CC3)cc(-c3ccc(Cl)cc3)nc12	255 to 257
N#Cc1ccc(OCCCOc2ccc(-c3cc4ccc(C#N)cc4o3)cc2)cc1	208 to 210
ClC1=Nc2ccccc2Sc2ncccc21	134 to 135
N#CC(NCCCO)c1ccc(F)cc1 (stereo unspecified)	69 to 70
CON1C(=O)CC2(CCN(CNC(=O)c3ccccc3O)CC2)C1=O	96 to 99
COCC1CN(c2ccc(OCC3CCCC3=O)cc2)C(=O)O1 (stereo unspecified)	70
COc1cccc(NC(=O)NC2CC(c3ccccc3F)c3ccccc3N(CC(=O)NC(C)(C)C)C2=O)c1 (stereo unspecified)	265 to 280
Cc1nc2c(s1)C(=O)c1ccccc1C2=O	> 260
CN1C(=O)CN(C(=O)Cl)C(c2ccccc2)c2cc(Cl)ccc21 (single isomer, unassigned; (-))	201 to 204
CCOC(=O)CC[C@H](NC(=O)c1ccc(C(CO)CC2CNc3nc(NC(=O)C(C)(C)C)nc(O)c3C2)cc1)C(=O)OCC (stereo partly specified)	133 to 135
Nc1cccc(S(=O)(=O)N2CC=CC2)c1	187 to 188
Cc1nn2c(C(F)(F)F)cc(-c3ccc(F)c(Cl)c3)nc2c1C#N	196
CCC1CC(=O)N(Cc2cccc(C(=O)NC3CCCC3)c2)N=C1c1ccc(OC)c(OC)c1 (stereo unspecified)	54
COc1ccc(C(Cc2ccncc2)c2ccc(C(N)=O)cc2)cc1OC1CCCC1 (stereo unspecified)	180 to 182
COc1cc(C(=O)NC2CCC(N(C)C)CC2)ccc1Nc1ncc2c(n1)N(C1CCCCC1)CC(F)(F)C(=O)N2C (stereo unspecified)	208 to 214
CC(=O)NC(=O)C(Cl)C(C)=O (stereo unspecified)	54 to 58
COc1ccc2cc(-c3ccc(C#C[Si](C)(C)C)cc3)[nH]c(=O)c2c1	133 to 135
CC1(c2ccccc2)Cc2cc(OCCO)c(Cl)c(Cl)c2C1=O (stereo unspecified)	188 to 190
CCOC(=O)c1c(-c2ccc(F)cc2)c2ccccc2[nH]c1=O	204 to 206
CCc1nn(C2CCCC2)c(N)c1C#N	171 to 173
CCOC(=O)Cc1c(C)ncnc1O	148 to 149
Nc1nnc(-c2ccccc2Nc2cccc(C(F)(F)F)c2)o1	185 to 187
Cc1ccc(Oc2ccc(S(=O)(=O)C[C@H]([C@H]3COC(C)(C)O3)N(O)C=O)cc2)cc1	156 to 158
